Reference: the supplement of paper PMC10307832

How the values were obtained:
Assay in all cases: relative viability (nuclei count vs DMSO), 5 days (fraction); higher = more cells survive
[1] = compound: C=CCNC1=C2C[C@@H](C)C[C@H](OC)[C@H](O)[C@@H](C)/C=C(\C)[C@H](OC(N)=O)[C@@H](OC)/C=C\C=C(/C)C(=O)NC(=CC1=O)C2=O [17-AAG] + Cc1cc(Nc2cc(N3CCN(C)CC3)nc(Sc3ccc(NC(=O)C4CC4)cc3)n2)n[nH]1 [Tozasertib] (partner 0.1 µM)
Method in brief: (§1)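 Lung cancer cell lines were seeded in 1536-well plates and dosed by pin tool the next day, with either a single drug or a fixed anchor-drug dose combined with five library-drug doses (not always all listed) spaced in √10 steps. Five days later, one step fixed the cells and stained their nuclei (final 0.05% Triton X-100, 1% formaldehyde, 1 ug/ml Hoechst), and nuclei were counted on 4× images. Relative viability is the nuclei count in treated wells divided by the count in vehicle wells, and each value is the median of duplicate plates.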

[2] = compound: C=CCNC1=C2C[C@@H](C)C[C@H](OC)[C@H](O)[C@@H](C)/C=C(\C)[C@H](OC(N)=O)[C@@H](OC)/C=C\C=C(/C)C(=O)NC(=CC1=O)C2=O [17-AAG] + N=C(N)NC(=N)NCCc1ccccc1 [Phenformin] (partner 250 µM)
Method in brief: as §1

[3] = compound: C=CCNC1=C2C[C@@H](C)C[C@H](OC)[C@H](O)[C@@H](C)/C=C(\C)[C@H](OC(N)=O)[C@@H](OC)/C=C\C=C(/C)C(=O)NC(=CC1=O)C2=O [17-AAG] + CC1(C)CCC(c2ccc(Cl)cc2)=C(CN2CCN(c3ccc(C(=O)NS(=O)(=O)c4ccc(N[C@H](CCN5CCOCC5)CSc5ccccc5)c(S(=O)(=O)C(F)(F)F)c4)cc3)CC2)C1 [Navitoclax] (partner 0.5 µM)
Method in brief: as §1

[4] = compound: C=CCNC1=C2C[C@@H](C)C[C@H](OC)[C@H](O)[C@@H](C)/C=C(\C)[C@H](OC(N)=O)[C@@H](OC)/C=C\C=C(/C)C(=O)NC(=CC1=O)C2=O [17-AAG]
Method in brief: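 Only plates meeting two conditions passed: control CV below 25% and at least one doubling. Lung cancer cell lines, kept overnight at 37 °C in 1536-well plates, were pinned with five library-drug doses (not always all listed) √10 apart on vehicle-anchored plates and grown 5 days without medium change. A one-step fix, permeabilisation and Hoechst stain preceded 4× imaging and MetaXpress nuclear counting. Viability equals treated-well nuclei divided by vehicle-well nuclei, as the median over plates.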

Row | Cell Line | relative viability ([1]; first compound 0.00128 µM) | relative viability ([1]; first compound 0.004048 µM) | relative viability ([1]; first compound 0.0128 µM) | relative viability ([1]; first compound 0.04048 µM) | relative viability ([1]; first compound 0.128 µM) | relative viability ([2]; first compound 0.00128 µM) | relative viability ([2]; first compound 0.004048 µM) | relative viability ([2]; first compound 0.0128 µM) | relative viability ([2]; first compound 0.04048 µM) | relative viability ([2]; first compound 0.128 µM) | relative viability ([3]; first compound 0.00128 µM) | relative viability ([3]; first compound 0.004048 µM) | relative viability ([3]; first compound 0.0128 µM) | relative viability ([3]; first compound 0.04048 µM) | relative viability ([3]; first compound 0.128 µM) | relative viability ([4]; 0.00128 µM) | relative viability ([4]; 0.004048 µM) | relative viability ([4]; 0.0128 µM) | relative viability ([4]; 0.04048 µM) | relative viability ([4]; 0.128 µM)
1 | 201T | 0.988 | 0.915 | 0.872 | 0.891 | 0.388 | 0.484 | 0.391 | 0.341 | 0.244 | 0.248 | 1.21 | 1.21 | 1.17 | 1.16 | 0.973 | 0.953 | 0.976 | 0.936 | 0.425 | 0.316
2 | A549 |  |  |  |  |  | 0.154 | 0.0295 | 0.0354 | 0.0477 | 0.03 | 1.13 | 0.542 | 0.0729 | 0.0453 | 0.044 | 0.948 | 0.86 | 0.115 | 0.0515 | 0.0401
3 | A-427 | 0.21 | 0.221 | 0.238 | 0.257 | 0.186 | 0.353 | 0.347 | 0.374 | 0.271 | 0.167 | 0.95 | 0.946 | 0.891 | 0.991 | 0.986 | 0.967 | 1.01 | 0.95 | 0.62 | 0.265
4 | ABC-1 | 0.163 | 0.2 | 0.185 | 0.207 | 0.175 | 0.212 | 0.261 | 0.255 | 0.246 | 0.261 |  |  |  |  |  | 0.916 | 0.978 | 1.09 | 0.892 | 0.708
5 | BEN | 0.529 | 0.625 | 0.473 | 0.738 | 0.472 | 0.268 | 0.26 | 0.222 | 0.197 | 0.167 | 0.069 | 0.0609 | 0.0634 | 0.052 | 0.0666 | 1.01 | 1.1 | 1.11 | 0.829 | 0.36
6 | CAL-12T | 0.328 | 0.24 | 0.375 | 0.314 | 0.153 | 0.56 | 0.498 | 0.563 | 0.447 | 0.15 | 1.25 | 1.17 | 1.21 | 0.799 | 0.296 | 0.947 | 1.02 | 0.948 | 0.625 | 0.24
7 | COR-L23 | 0.2 | 0.25 | 0.225 | 0.158 | 0.0795 | 0.459 | 0.438 | 0.419 | 0.269 | 0.103 | 1.07 | 1.06 | 0.991 | 0.544 | 0.0992 | 0.987 | 1.02 | 1.01 | 0.668 | 0.147
8 | COR-L 105 | 0.458 | 0.356 | 0.384 | 0.713 | 0.418 | 0.55 | 0.453 | 0.463 | 0.354 | 0.299 | 0.936 | 0.756 | 0.721 | 0.604 | 0.486 | 0.917 | 0.966 | 1 | 0.488 | 0.547
9 | Calu-6 |  |  |  |  |  |  |  |  |  |  | 0.783 | 0.735 | 0.703 | 0.197 | 0.122 | 1.02 | 0.984 | 0.946 | 0.3 | 0.148
10 | ChaGo-K-1 | 0.215 | 0.249 | 0.279 | 0.217 | 0.205 | 0.444 | 0.587 | 0.422 | 0.273 | 0.163 | 0.949 | 1.11 | 0.897 | 0.441 | 0.273 | 0.961 | 0.966 | 0.877 | 0.463 | 0.307
11 | EBC-1 |  |  |  |  |  |  |  |  |  |  | 0.514 | 0.203 | 0.157 | 0.182 | 0.126 | 1.02 | 0.882 | 0.166 | 0.15 | 0.132
12 | EKVX | 0.448 | 0.377 | 0.398 | 0.238 | 0.0984 | 0.26 | 0.222 | 0.139 | 0.195 | 0.0638 | 0.997 | 0.937 | 0.934 | 0.242 | 0.165 | 1 | 1.02 | 1.05 | 0.261 | 0.229
13 | EMC-BAC-2 | 0.286 | 0.297 | 0.347 | 0.26 | 0.226 | 0.576 | 0.535 | 0.427 | 0.261 | 0.189 | 1.23 | 1.07 | 1.18 | 1.11 | 0.443 | 1.13 | 0.986 | 0.889 | 0.396 | 0.362
14 | EPLC-272H | 0.331 | 0.329 | 0.482 | 0.379 | 0.143 | 0.32 | 0.327 | 0.202 | 0.095 | 0.0918 | 1.11 | 1.21 | 1.02 | 1.06 | 0.225 | 1.02 | 0.968 | 0.663 | 0.159 | 0.104
15 | H3255 | 0.957 | 0.496 | 0.612 | 0.234 | 0.228 | 0.365 | 0.368 | 0.331 | 0.234 | 0.189 | 0.489 | 0.66 | 0.547 | 0.0858 | 0.107 | 0.995 | 0.973 | 0.948 | 0.313 | 0.243
16 | HARA | 0.0961 | 0.125 | 0.135 | 0.148 | 0.132 | 0.443 | 0.456 | 0.367 | 0.418 | 0.113 | 1.16 | 1.21 | 1.15 | 1.12 | 1.14 | 0.952 | 1.12 | 1 | 0.474 | 0.183
